A short description of the series: gradient 5% acetonitrile 3 min, to 50% in 2 min, to 85% in 15 min, held 3 min, 100 µL/min. The following applies: column: Zorbax Extend-C18 2.1 x 50 mm; eluents: water / acetonitrile, 0.1% formic acid. The essentials: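 Mixtures of ~100 pure standards were chromatographed on a Zorbax Extend-C18 column (2.1 × 50 mm, 1.8 μm) at 100 μL/min using water and acetonitrile, each with 0.1% formic acid. Detection used a quadrupole time-of-flight mass spectrometer in positive and negative ionization mode, and data collection spanned 3 months. Retention time was obtained from adduct peaks picked computationally and each checked manually.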
Consider `COc1ccc(OC)c(NC(=O)Cn2c(C)cc(-c3nnc(C4CC4)o3)c2C)c1`, for which the RP-LC retention time worked out at 830 s.

Molecule `CCOc1cc2c(cc1OCC)C1C(C(=O)NCCOC)c3ccccc3C(=O)N1CC2` (stereo not given) came in with an RP-LC retention time of 744 s.

The molecule `O=S(=O)(Nc1ccc(Cn2cncn2)cc1)c1cccc(F)c1` yielded an RP-LC retention time of 705 s.

`Cc1ncsc1C1N(C2CCN(C(=O)c3ccco3)CC2)C(=O)C12CCCC2` (stereo not given): the RP-LC retention time is 666 s.

Turning to `O=C(NCC1CC(=O)N(c2ccc3c(c2)OCO3)C1)Nc1ccccc1C(F)(F)F` (stereo not given), the RP-LC retention time is 717 s.

`Cc1oc(-c2ccc(NC(=O)c3ccc(Cl)s3)cc2)nc1Cn1cccn1`: the RP-LC retention time was found to be 980 s.

Turning to `COc1ccc(N2C(=O)CC(c3ccc(OC)c(OC)c3)CC2=O)cc1Cl`, the RP-LC retention time turned out to be 845 s.

Turning to `Cc1ccc2nc(-c3ccc(C)c(NC(=O)c4cccs4)c3)[nH]c2c1`, the RP-LC retention time came out at 681 s.

The molecule `O=P1(N(CCCl)CCCl)NCCCO1` (stereo not given) came in with an RP-LC retention time of 724 s.

Molecule `Cc1ccc(CC(=O)Nc2cc(-c3cccs3)no2)cc1` displayed an RP-LC retention time of 993 s.

In turn, `O=C(c1cnccn1)N1CCC(Oc2nc3ccccc3s2)CC1` registered an RP-LC retention time of 755 s.

With `Cc1c(C)n(CC(O)CNC(C)c2ccccc2)c2ccccc12` (stereo not given), the RP-LC retention time turned out to be 605 s.

`COc1cc(NC(=O)N2CCCC(CN3CCc4ccccc4C3)C2)cc(OC)c1OC` (stereo not given): the RP-LC retention time worked out at 642 s.

On to `O=C1COc2cc(S(=O)(=O)N3CCC(C(=O)N4CCc5ccccc54)CC3)c(Cl)cc2N1`, for which the RP-LC retention time came to 844 s.

As to `O=C(Cn1c(=O)n(C2CC2)c(=O)c2nscc21)NCCC1=CCCCC1`, the RP-LC retention time worked out at 776 s.

In turn, `Cc1ccc2c(c1)N(S(C)(=O)=O)CCC(C(=O)NCc1ccco1)O2` (stereo not given) had an RP-LC retention time of 793 s.

Take `COc1ccc(-c2cc(N3CCCC(C(=O)Nc4nccs4)C3)ncn2)cc1` (stereo not given): the RP-LC retention time was 582 s.

`COc1ccc(C(=O)Nc2nsc(-c3ccccc3)n2)cc1`: the RP-LC retention time came out at 778 s.

As for `Cc1ccccc1-c1nc(N)n(C(=O)C(C)(C)C)n1`, the RP-LC retention time turned out to be 1100 s.

As for `Cc1ccc(C)c(-n2ccn(Cc3nc(-c4ccc(F)c(Cl)c4)no3)c(=O)c2=O)c1`, the RP-LC retention time came out at 1010 s.

`CCOC(=O)c1cccc(NC(=O)CSc2ccc(N3CCCC(C(=O)NC4CC4)C3)nn2)c1` (stereo not given) yielded an RP-LC retention time of 680 s.

Consider `O=C(c1ccccc1Br)N(Cc1cccc(Cl)c1)C1CCS(=O)(=O)C1` (stereo not given), for which the RP-LC retention time turned out to be 846 s.

`O=C(NCc1ccc(Cl)cc1)C1CCCN(c2ncnc3c2nc2n3CCCCC2)C1` (stereo not given): the RP-LC retention time was 812 s.

`Cc1nc(-c2ccc3c(c2)n(CC(=O)NCCC2=CCCCC2)c(=O)n3C(C)C)no1`: the RP-LC retention time was 915 s.

For the molecule `O=C(NC1CCCCC1)c1csc(-c2ccc(N3CCOCC3)nc2)n1`, the RP-LC retention time stood at 916 s.

The molecule `O=S(=O)(Cc1ccccc1F)N1CCC(c2noc(-c3cccnc3)n2)C1` (stereo not given) showed an RP-LC retention time of 826 s.

On to `O=c1c2cc(-c3cccs3)nn2cnn1Cc1nc(-c2cccc(Br)c2)no1`, for which the RP-LC retention time is 1150 s.

Molecule `Clc1cccc(-c2nc3ccccn3c2Nc2ccc3c(c2)OCCO3)c1` gave an RP-LC retention time of 715 s.

In turn, `CC(C)N1C(=O)c2cccnc2Sc2cc(NC(=O)Cc3cccs3)ccc21` showed an RP-LC retention time of 834 s.

`CCSc1nc2ccc(NS(=O)(=O)c3ccc(F)cc3F)cc2s1` had an RP-LC retention time of 1020 s.

`Cc1nn(C)cc1S(=O)(=O)Nc1c(C)n(C)n(-c2ccccc2)c1=O` displayed an RP-LC retention time of 722 s.

As for `CC(C)N1CCC(c2nnc3n2CCN(S(=O)(=O)c2ccccc2Cl)C3)C1` (stereo not given), the RP-LC retention time amounted to 599 s.

With `O=C(Cn1ncc2c3ccccc3n(Cc3ccc(F)cc3)c2c1=O)N1CCN(c2ccccn2)CC1`, the RP-LC retention time stood at 689 s.

In turn, `O=C(NCc1cccc(Br)c1)C1CCN(C(=O)C2Sc3ccccc3NC2=O)CC1` (stereo not given) yielded an RP-LC retention time of 800 s.

In turn, `CCc1nc(-c2csc(S(=O)(=O)N3CCCC(C(=O)NC4CC4)C3)c2)no1` (stereo not given) registered an RP-LC retention time of 787 s.

The molecule `Cc1nn(C(C)C(=O)NCCCOC(C)C)c(=O)c2c(C)n(-c3ccccc3)nc12` (stereo not given) yielded an RP-LC retention time of 823 s.

`CCc1sc(N)nc1-c1ccc(OC)cc1` yielded an RP-LC retention time of 668 s.

In turn, `CCc1nc2cc(N3CCC(C(=O)NCc4ccc5c(c4)OCO5)CC3)cnc2nc1CC` registered an RP-LC retention time of 799 s.

`Cc1nc(N2CCN(C(=O)Nc3cccc(C(F)(F)F)c3)CC2)cc(-n2cccn2)n1` came in with an RP-LC retention time of 947 s.

Molecule `C=CCN1C(=O)COc2ccc(-c3csc(NC(=O)c4cccc(Br)c4)n3)cc21` had an RP-LC retention time of 1120 s.

On to `O=c1c(NCCc2ccncc2)nc2ccncc2n1Cc1ccccc1`, for which the RP-LC retention time is 553 s.

For the molecule `CCc1nnc2ccc(-c3noc(Cc4cc(OC)cc(OC)c4)n3)cn12`, the RP-LC retention time was found to be 844 s.

In turn, `O=C(c1cccc2c1CCN2C(=O)c1ccc(F)cc1)N1CCOCC1` displayed an RP-LC retention time of 704 s.

The molecule `CCn1cc(-c2ccc(C)cc2)cc1C(=O)NCCCN1CCOCC1` yielded an RP-LC retention time of 693 s.

Take `CCc1noc(NC(C)=O)c1-c1ccc(C)c(S(=O)(=O)NCc2ccc(OC)cc2)c1`: the RP-LC retention time came to 807 s.

As to `Cc1ccc2oc(C(=O)Nc3nccs3)c(C)c2c1`, the RP-LC retention time was determined as 942 s.

For `Cc1nc(-c2ccc(C(=O)NC(C)C)cc2)no1`, the RP-LC retention time was 693 s.

In turn, `COc1cc(-c2noc(Cc3nnc(-c4ccc(C)c(C)c4)o3)n2)cc(OC)c1OC` displayed an RP-LC retention time of 1010 s.

`CCOC(=O)CCNC(=O)N1CCN(Cc2nnnn2-c2ccc(F)c(F)c2)CC1`: the RP-LC retention time amounted to 688 s.

`CC(=O)c1cccc(NC(=O)N2CCCN(c3nc4ccccc4n4cccc34)CC2)c1` had an RP-LC retention time of 647 s.

Consider `CCn1cnc(S(=O)(=O)N2CCCC(C(=O)Nc3cccc(Cl)c3)C2)c1` (stereo not given), for which the RP-LC retention time amounted to 797 s.

Regarding `COc1cccc(C(=O)NCCN2CCN(c3ccc(Cl)cc3)CC2)c1`, the RP-LC retention time was determined as 745 s.

Regarding `O=C(NCc1noc(C2CCCC2)n1)C1CCCCC1`, the RP-LC retention time is 811 s.

`CCCn1cc(CCNC(=O)Nc2ccc(Cl)cc2F)c2cccnc21`: the RP-LC retention time was determined as 876 s.

Take `CN1C(=O)CCC2(CNC(=O)Nc3ccc4c(c3)OCCO4)CCCC=C12` (stereo not given): the RP-LC retention time was determined as 722 s.

For the molecule `CC(C)(C)c1csc(-c2csc(S(=O)(=O)NCc3ccc4c(c3)OCO4)c2)n1`, the RP-LC retention time is 1170 s.

Consider `O=C(COc1cccc(C(F)(F)F)c1)Nc1cc(N2CCOCC2)ncn1`, for which the RP-LC retention time worked out at 775 s.

In turn, `Cc1cc(-c2csc(Nc3ccc(N(C)C)cc3)n2)ccc1F` displayed an RP-LC retention time of 767 s.

As for `Cc1cnc(CC2CCN(S(=O)(=O)c3ccc(C#N)cc3)C2)n1C1CC1` (stereo not given), the RP-LC retention time is 654 s.

Take `O=c1n(CC2CO2)c(=O)n(CC2CO2)c(=O)n1CC1CO1` (stereo not given): the RP-LC retention time is 675 s.

On to `O=C(NC1CCN(Cc2ccccc2)CC1)C1CCN(c2cnc3nccnc3c2)CC1`, for which the RP-LC retention time came out at 570 s.

`Cc1nn(-c2ccc(-c3ccccc3)nn2)c(C)c1S(=O)(=O)NCc1ccc(F)cc1F` showed an RP-LC retention time of 990 s.

In turn, `O=C(Nc1nc2c(s1)CN(Cc1ccccc1)CC2)c1cccc(N2C(=O)CCC2=O)c1` came in with an RP-LC retention time of 548 s.

The molecule `O=C(NCCc1csc(-c2ccccc2)n1)C1CCN(C(=O)COc2ccccc2)CC1` displayed an RP-LC retention time of 806 s.

For `Cc1nc2cc(-c3noc(-c4cccc(Br)c4)n3)ccc2o1`, the RP-LC retention time was found to be 1270 s.

In turn, `COc1ccc2cc(OCC3(C(=O)O)CN(C(=O)c4ccc(F)cc4)C3)ccc2c1` registered an RP-LC retention time of 969 s.

The molecule `CCN1C(=O)COc2ccc(-c3noc(-c4ccc(F)cc4)n3)cc21` showed an RP-LC retention time of 1130 s.

`COc1cccc2c1[C@@H]1CN(CCCCN3C(=O)NC4C(SC5NCC(c6ccccc6)NC54)C3=O)C[C@@H]1CO2` (stereo not given in full) showed an RP-LC retention time of 902 s.

On to `COc1ccc(OC)c(NC(=O)C2CCCN(c3nnc4ccc(Cl)cn34)C2)c1` (stereo not given), for which the RP-LC retention time was 810 s.

Take `COc1ccc(NC(=O)Cn2c(=O)nc(N3CCC(C)CC3)c3ccccc32)c(OC)c1`: the RP-LC retention time was 831 s.

`CC(C)c1cc(C(=O)Nc2ccc(F)c(F)c2)nc2ccnn12` registered an RP-LC retention time of 1180 s.

Regarding `Cc1nc2c(ccc3nc(NC(=O)c4ccccc4Br)sc32)s1`, the RP-LC retention time came out at 869 s.

`COc1cccc(C(=O)Nc2nc3c(s2)CN(Cc2ccccc2)CC3)c1OC` showed an RP-LC retention time of 585 s.

In turn, `CC(=O)CC(=O)Nc1ccc(Cl)c(C(F)(F)F)c1` showed an RP-LC retention time of 831 s.

Regarding `Cc1ccccc1NS(=O)(=O)c1c[nH]c2ncccc12`, the RP-LC retention time was determined as 728 s.

The molecule `O=C(Cn1cccc1-c1nnc(-c2ccccc2)o1)N1CCN(c2ccccc2)CC1` returned an RP-LC retention time of 984 s.

In turn, `Cc1nnc2c(=O)n(CC(=O)NCCN3CCc4ccccc4C3)c3cccnc3n12` displayed an RP-LC retention time of 738 s.

`Fc1cccc(-c2noc(-c3ccc(N4CCN(C5CCCCC5)CC4)nc3)n2)c1` gave an RP-LC retention time of 814 s.

In turn, `Cc1nc(-c2ccc(OCC(C)C)c(C#N)c2)sc1C(=O)O` displayed an RP-LC retention time of 1040 s.

`COc1ccc2nc(C(=O)NC(C)c3ccc(F)cc3)cn2n1` (stereo not given) had an RP-LC retention time of 821 s.
